Read-outs that look alike come from different tables or passages of the source.
What was measured:
[1] = target: T1, HIF-2α HIS TAG-PASB Domain (Homo sapiens, UniProt Q99814); assay: HIF-2α Scintillation Proximity Assay (SPA); type: binding
T1 construct: 100 nM HIF-2α HIS TAG-PASB Domain
Outline: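 IC50 values rest on percent inhibition, where the sample signal is scaled between high and low controls. Wells contain about 100 μL: compound dispensed as 2 μL of DMSO solution, 88 μL protein-probe mix and 10 μL of beads.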

[2] = tested on: 786-O-Hif-Luc cells; assay: Luciferase Assay (HIF responsive elements reporter); details: read-out: Mean Luciferase EC50 (nM), 786-O-Hif-Luc cells
Method: A pool of infected cells were then selected against 2 μg/mL of puromycin (P8833, Sigma) for 10 days followed by limited dilution to select single clones. […] Each concentration was tested in triplicate. After about 24 hours, luciferase activity was determined using ONE-Glo Luciferase Assay Reagent (E6110, Promega) following the manufacturer's recommended procedure. EC50 were calculated using Dotmatics software.

[3] = read-out: Scintillation Proximity Assay IC50

T1 sequence (Q99814 240-350 limits assumed): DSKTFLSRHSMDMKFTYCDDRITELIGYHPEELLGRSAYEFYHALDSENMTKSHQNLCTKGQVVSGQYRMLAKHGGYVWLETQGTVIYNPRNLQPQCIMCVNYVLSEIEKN

| Structure (SMILES) | IC50 [1, 3] | EC50 [2] | IC50 ([1]; Scintillation Proximity Assay IC50 (nM)) |
| --- | --- | --- | --- |
| CC(O)c1c(S(=O)(=O)C(F)(F)F)ccc(Oc2cc(F)cc(Cl)c2)c1Br (stereo not drawn) [Compound 103] | 250 to 1000 nM | > 1000 nM |  |
| O=S(=O)(c1ccc(Cn2cncn2)c2c1[C@H](O)C(F)(F)C2)C(F)(F)F [Compound 534] | > 1000 nM | > 1000 nM |  |
| O=S(=O)(c1ccc(OC2CCC(O)CC2)c2c1C(O)C(F)(F)C2)C(F)(F)F (stereo not drawn) [Compound 618] | > 1000 nM | > 1000 nM |  |
| O=S(=O)(c1ccc(Oc2cc(F)cc(F)c2)c2c1CCC2)C(F)F [Compound 20] | > 1000 nM | > 1000 nM |  |
| N#Cc1cccc(Oc2ccc(S(=O)(=O)C(F)(F)F)cc2Br)c1 [Compound 117] | 50 to 249 nM | > 1000 nM |  |
| CC1(C)C[C@H](O)C[C@@H](c2ccc(S(=O)(=O)C(F)(F)F)c3c2CC(F)(F)[C@H]3O)C1 [Compound 549] | < 50 nM | 50 to 249 nM |  |
| CS(=O)(=O)NCCOc1ccc(S(=O)(=O)C(F)(F)F)c2c1CC(F)(F)C2O (stereo not drawn) [Compound 637] | 250 to 1000 nM | > 1000 nM |  |
| CS(=N)(=O)c1ccc(Oc2cc(F)cc(F)c2)c2c1C(O)C(F)(F)C2 (stereo not drawn) [Compound 192] | 50 to 249 nM | 250 to 1000 nM |  |
| N#Cc1cccc(Oc2ccc3c(c2Br)[C@@H](O)C(F)(F)S3(=O)=O)c1 [Compound 430] | < 50 nM | < 50 nM |  |
| O[C@H]1c2c(C(F)(F)F)ccc(OCCCF)c2[C@@H](F)C1(F)F [Compound 582] | < 50 nM | < 50 nM |  |
| CS(=O)(=O)c1ccc(O[C@H]2C[C@@H](O)C2)c2c1[C@H](O)C(F)(F)[C@@H]2F [Compound 735] | 250 to 1000 nM | > 1000 nM |  |
| O=S(=O)(c1ccc(Oc2cc(Cl)c[n+]([O-])c2)c2c1[C@H](O)C(F)(F)C2)C(F)(F)F [Compound 260] | 50 to 249 nM | 50 to 249 nM |  |
| CC(C)Oc1ccc(S(=O)(=O)C(F)(F)F)c2c1CC(F)(F)C2O (stereo not drawn) [Compound 593] | < 50 nM | 50 to 249 nM |  |
| O=S(=O)(c1ccc(C2CC2)c2c1C(O)C(F)(F)C2)C(F)(F)F (stereo not drawn) [Compound 513] | 250 to 1000 nM | > 1000 nM |  |
| O=S1(=O)c2ccc(OCC3CC3)c(C(F)F)c2[C@@H](O)C1(F)F [Compound 439] | > 1000 nM | > 1000 nM |  |
| N#Cc1c(S(=O)(=O)C(F)F)ccc(Oc2cc(F)cc(Cl)c2)c1Cl [Compound 38] | 50 to 249 nM | 250 to 1000 nM |  |
| O=S(=O)(c1ccc(Oc2cccc3[nH]ncc23)c2c1[C@H](O)C(F)(F)C2)C(F)(F)F [Compound 263] | < 50 nM | 250 to 1000 nM |  |
| O=S(=O)(c1ccc(Oc2ccc(F)c(Br)c2)c2c1[C@H](O)C(F)(F)C2)C(F)F [Compound 194] | < 50 nM | 250 to 1000 nM |  |
| O=S(=O)(c1ccc(-c2cccnc2)c2c1[C@H](O)C(F)(F)C2)C(F)(F)F [Compound 558] | > 1000 nM | > 1000 nM |  |
| O=S(=O)(c1ccc(OCc2ccccc2)c2c1[C@H](O)C(F)(F)C2)C(F)F [Compound 780] | > 1000 nM | > 1000 nM |  |
| N#CN=S1(=O)c2ccc(Oc3cc(F)cc(F)c3)c(C(F)F)c2C(O)C1(F)F (stereo not drawn) [Compound 397] | < 50 nM | > 1000 nM |  |
| N#C[C@H]1C[C@@H](Oc2ccc(S(=O)(=O)C(F)(F)F)c3c2CC(F)(F)[C@H]3O)C1 [Compound 787] | < 50 nM | < 50 nM |  |
| C#CCOc1ccc(S(=O)(=O)C(F)(F)F)c2c1CC(F)(F)[C@H]2O [Compound 711] | 250 to 1000 nM | 250 to 1000 nM |  |
| O=S(=O)(c1ccc(Oc2ccc(F)c(Cl)c2)c2c1C(O)CC2)C(F)(F)F (stereo not drawn) [Compound 218] | 250 to 1000 nM | > 1000 nM |  |
| NCc1c(S(=O)(=O)C(F)F)ccc(Oc2cc(F)cc(Cl)c2)c1Br [Compound 85] |  | > 1000 nM | > 1000 nM |
| N#Cc1cccc(Oc2ccc(S(=O)(=O)C(F)F)c(CO)c2Br)c1 [Compound 81] | 250 to 1000 nM | 250 to 1000 nM |  |
| O=S(=O)(c1ccc(Oc2ccc(F)cc2)c2c1C(O)CC2)C(F)(F)F (stereo not drawn) [Compound 212] | 250 to 1000 nM | > 1000 nM |  |

| Structure (SMILES) | IC50 [1, 3] | EC50 [2] | IC50 ([1]; Scintillation Proximity Assay IC50 (nM)) |
| --- | --- | --- | --- |
| CS(=O)(=O)c1ccc(Sc2cccc(C#N)c2)c2c1[C@H](O)C(F)(F)[C@@H]2F [Compound 492, 3-(((1S,3R)-2,2,3-trifluoro-1-hydroxy-(methylsulfonyl)-2,3-dihydro-1H-inden-4-yl)thio)benzonitrile] | > 1000 nM | > 1000 nM |  |
| Cc1c(Oc2cc(F)cc(C#N)c2)ccc(S(=O)(=O)C(F)(F)F)c1Cl [Compound 144] | < 50 nM | 250 to 1000 nM |  |
| O=S(=O)(c1ccc(OCCO)c2c1C(O)C(F)(F)C2)C(F)(F)F (stereo not drawn) [Compound 614] | 50 to 249 nM | > 1000 nM |  |
| CS(=O)(=O)c1ccc(OC(CF)CF)c2c1[C@H](O)C(F)(F)[C@@H]2F [Compound 762] | 250 to 1000 nM | 250 to 1000 nM |  |
| CS(=O)(=O)c1ccc(Oc2cncc(C#N)c2)c2c1[C@H](O)[C@H](F)C2 [Compound 313] | > 1000 nM | > 1000 nM |  |
| C[C@]1(C#N)C[C@@H](Oc2ccc(S(=O)(=O)C(F)(F)F)c3c2CC(F)(F)[C@H]3O)C1 [Compound 789] | < 50 nM | < 50 nM |  |
| O=S(=O)(c1ccc(CCO)c2c1[C@H](O)C(F)(F)C2)C(F)(F)F [Compound 496, (S)-2,2-difluoro-4-(2-hydroxyethyl)-7-((trifluoromethyl)sulfonyl)-2,3-dihydro-1H-inden-1-ol] | 250 to 1000 nM | > 1000 nM |  |
| O=S(=O)(c1ccc(Oc2cc(F)c(F)c3[nH]ncc23)c2c1C(O)C(F)(F)C2)C(F)(F)F (stereo not drawn) [Compound 261] | 250 to 1000 nM | > 1000 nM |  |
| CS(=O)(=O)c1ccc(Oc2cc(F)cc(C#N)c2)c2c1[C@H](O)C(F)(F)[C@@H]2O [Compound 312] | 50 to 249 nM | 250 to 1000 nM |  |
| O=S(=O)(c1ccc(OC2CC3(COC3)C2)c2c1[C@H](O)C(F)(F)C2)C(F)(F)F [Compound 718] | 50 to 249 nM | 250 to 1000 nM |  |
| CS(=O)(=O)c1ccc(Oc2cc(F)cc(F)c2)c(C(F)F)c1C#N [Compound 93] | 50 to 249 nM | 250 to 1000 nM |  |
| O=S1(=O)c2ccc(Oc3ccc(F)c(F)c3)c(C(F)F)c2[C@@H](O)C1(F)F [Compound 436] | < 50 nM | 50 to 249 nM |  |
| OC1CCc2c(OCC(F)F)ccc(C(F)(F)F)c21 (stereo not drawn) [Compound 696] | 50 to 249 nM | 50 to 249 nM |  |
| Cc1c(Oc2cc(F)cc(Cl)c2)ccc(S(=O)(=O)C(F)(F)F)c1Cl [Compound 143] | < 50 nM | > 1000 nM |  |
| CC(=O)c1c(S(=O)(=O)C(F)(F)F)ccc(Oc2cc(F)cc(Cl)c2)c1Br [Compound 104] | 250 to 1000 nM | > 1000 nM |  |
| CCOC(=O)/C=C/c1c(S(=O)(=O)C(F)(F)F)ccc(Oc2cc(F)cc(C#N)c2)c1C [Compound 148] | 50 to 249 nM | > 1000 nM |  |
| CS(=O)(=NC#N)c1ccc(Oc2cc(F)cc(C#N)c2)c2c1[C@H](O)[C@H](F)C2 (stereo partly drawn) [Compound 302] | 50 to 249 nM | 50 to 249 nM |  |
| N#CN=S(=O)(CF)c1ccc(Oc2cc(F)cc(C#N)c2)c2c1[C@H](O)C(F)(F)C2 (stereo partly drawn) [Compound 285] | 50 to 249 nM | 50 to 249 nM |  |
| CS(=O)(=O)c1ccc(Oc2cccc(C#N)c2)c2c1[C@H](O)C(F)(F)C2 [Compound 162] | 50 to 249 nM | 50 to 249 nM |  |
| O=S(=O)(c1ccc(OCC2CC2)c2c1[C@H](O)C(F)(F)C2)C(F)F [Compound 781] | 250 to 1000 nM | 50 to 249 nM |  |
| CCCOc1ccc(C(F)(F)F)c2c1CC(F)(F)[C@H]2O [Compound 704] | < 50 nM | < 50 nM |  |
| COCCOc1ccc(S(=O)(=O)C(F)(F)F)c2c1CC(F)(F)C2O (stereo not drawn) [Compound 595] | 250 to 1000 nM | 250 to 1000 nM |  |
| N[C@@H]1c2c(ccc(Oc3cc(F)cc(F)c3)c2C(F)F)S(=O)(=O)C1(F)F [Compound 401] | < 50 nM | 50 to 249 nM |  |
| O=S(=O)(c1ccc(OCc2ccccn2)c2c1C(O)C(F)(F)C2)C(F)(F)F (stereo not drawn) [Compound 665] | > 1000 nM | > 1000 nM |  |
| O=S(=O)(c1ccc(OC2CCNCC2)c2c1C(O)C(F)(F)C2)C(F)(F)F (stereo not drawn) [Compound 607] | < 50 nM | > 1000 nM |  |
| CCOc1ccc(S(C)(=O)=O)c2c1CC(F)(F)[C@H]2O [Compound 778] | < 50 nM | > 1000 nM |  |
| COc1cc(F)cc(Oc2ccc3c(c2Br)[C@@H](O)C(F)(F)S3(=O)=O)c1 [Compound 426] | 50 to 249 nM | 250 to 1000 nM |  |
